# Source: US10487078B2, “Compositions and methods of targeting mutant K-RAS” (NantBio, Inc., priority 2015, dated 2019)
# Where two headings read alike, the source gives them in different places.
# Tests used:
# K-ras wild-type (GTP) = K-ras wild-type (GTP) (Homo sapiens, UniProt P01116); experiment: SPR assay (surface plasmon resonance); type: binding; settings: 25° C., 8% DMSO
# Experimental: (§1) Selected compounds were also tested for selective binding to wild type and mutant forms of K-ras in the active and non-active state using surface plasmon resonance, and exemplary results are shown in Table 4.
# (§2) The running buffer in all surface plasmon resonance experiments was 10 mM HEPES pH 7.4, 150 mM NaCl, 0.1% (v/v) Tween-20, 1 mM MgCl2, 8% DMSO. Experiments were carried out on the SensiQ Pioneer optical biosensor. The flow rate was set at 50 μL/min and the temperature was 25° C. kRAS protein was immobilized to the Nickel-NTA charged surface of the SensiQ HisCap chip (sensiqtech.com) giving a yield of 4000 RU. Small molecules were prepared in 100% DMSO and further diluted to 8% DMSO in running buffer. The small molecules were injected using the Taylor diffusion gradient injection mode (OneStep®, see e.g., Evaluation of Taylor dispersion injections: Determining kinetic/affinity interaction constants and diffusion coefficients in label-free biosensing, John G. Quinn, Analytical Biochemistry (2011)). Buffer blanks were injected for double referencing purposes. Data processing and model fitting were performed using Qdat.
# K-ras G12D = K-ras G12D (Homo sapiens, UniProt P01116, G12D); experiment: G-LISA Ras activation assay, 293H cells transfected with G12D mutant; type: cell-based; settings: 1 hour treatment
# Experimental: (§3) 293H cells were seeded in 6-wells at 0.6×10^6 cells per well and transfected next day with 5 μg of Ras wild-type, or G12C, G12D or G12V mutant DNA plasmid vector using transfection reagent Lipofectamine 3000. Next day cells were treated with 3.125-50 μM of Ras compounds for 1 hour. Wild-type transfected cells were subsequently treated with 100 ng/ml EGF for 2 minutes. Cells were washed once in ice-cold PBS, lysed in complete lysis buffer on ice, and processed by G-LISA according to Cytoskeleton protocol.
# (§4) In-cell selectivity of the compounds presented herein against a specific K-ras mutant form can also be tested as shown in the following exemplary experiment. 293H cells were seeded in 6-wells and transfected next day with 5 μg of Ras wild-type, or G12C, G12D or G12V mutant DNA plasmid vector. Next day cells were treated with 3.125-50 μM of Ras compounds for 1 hour. Wild-type transfected cells were subsequently treated with 100 ng/ml EGF for 2 minutes. Cells were washed once in ice-cold PBS, lysed in complete lysis buffer on ice, and processed by G-LISA according to Cytoskeleton protocol. FIG. 1 depicts exemplary results.
# as §3, with “In still further experiments, the inventors tested selected compounds in a G-LISA assay to compare IC50 values for wild-type and various mutant K-Ras (G12D, G12V) using the following general protocol: 293H” for “293H”
# K-ras G12V (GTP) = K-ras G12V (GTP) (Homo sapiens, UniProt P01116, G12V); experiment: SPR assay (surface plasmon resonance); type: binding; settings: 25° C., 8% DMSO
# Experimental: as §1, §2
# K-ras G12D (GTP) = K-ras G12D (GTP) (Homo sapiens, UniProt P01116, G12D); experiment: SPR assay (surface plasmon resonance); type: binding; settings: 25° C., 8% DMSO
# Experimental: as §1, §2
# K-Ras wild-type = K-Ras wild-type (Homo sapiens, UniProt P01116); experiment: G-LISA Ras activation assay, 293H cells transfected with Ras wild-type, EGF-stimulated; type: cell-based; settings: Table 5; IC50, 293H transfected, 1 hour treatment, 100 ng/ml EGF; read-out: G-LISA (wild type)
# Experimental: as §3, §4
# as §3, with “In still further experiments, the inventors tested selected compounds in a G-LISA assay to compare IC50 values for wild-type and various mutant K-Ras (G12D, G12V) using the following general protocol: 293H” for “293H”
# [1] = Table 1, G-LISA, 293H transfected, read-out: IC50 (μM) G12D
# [2] = Table 5, IC50, 293H transfected, read-out: G-LISA (G12D)
Kd (K-ras wild-type (GTP)) [µM],SPR Assay Wild-type (GTP) Rmax (K-ras wild-type (GTP)),IC50 (K-ras G12D; [1]) [µM],IC50 (K-ras G12D; [2]) [µM],Kd (K-ras G12V (GTP)) [µM],SPR Assay G12V (GTP) Rmax (K-ras G12V (GTP)),Kd (K-ras G12D (GTP)) [µM],SPR Assay G12D (GTP) Rmax (K-ras G12D (GTP)),IC50 (K-Ras wild-type) [µM],Compound
6.4,Rmax = 14.6 ± 0.1,> 25,> 25,–,–,–,–,–,Cc1nc(C)c(C(=O)Nc2nc(-c3ccc4c(c3)CC(=O)N4)cs2)s1 [Compound 4639]
–,–,> 25,187,12.1,Rmax = 100.3 ± 0.2,570,Rmax = 219 ± 5,7,Cc1nc(C)c(C(=O)Nc2nc(-c3ccc4c(c3)CCC(=O)N4)cs2)[nH]1 [Compound 4805]
